From patent publication US9758485B2, “Compounds for controlling arthropods” (priority 2013, dated 2017)

tested on: not listed separately; assay: logP determination by HPLC on a reversed-phase column (C18), EEC Directive 79/831 Annex V.A8; type: physicochemical; details: HPLC, reversed-phase C18, acetonitrile/water with formic acid, 55° C.

Compound	logP
Cc1cc(C(F)(C(F)(F)F)C(F)(F)F)cc(C(F)(F)F)c1-c1cc(-c2ccc(Cl)c(C(=O)NC3CC3)c2)on1 [I-T22-5]	4.9

same assay, conditions: HPLC-MS method a), Table I-T3

Compound	logP^a)
N#CC1(NC(=O)c2cc(-c3cnn(-c4ccc(C(F)(C(F)(F)F)C(F)(F)F)cc4C(F)(F)F)c3)ccc2Cl)CC1 [I-T3-53]	4.3
N#CC1(NC(=O)c2cc(-c3cnn(-c4c(Cl)cc(C(F)(C(F)(F)F)C(F)(F)F)cc4C(F)(F)F)c3)ccc2Cl)CC1 [I-T3-57]	4.3
Cc1cc(C(F)(C(F)(F)F)C(F)(F)F)cc(Br)c1-n1cc(-c2ccc(Cl)c(C(=O)NC3CC3)c2)cn1 [I-T3-86]	4.5

tested on: Rhipicephalus sanguineus; assay: Rhipicephalus sanguineus - in vitro contact tests with adult brown dog ticks; type: in vivo; details: application rate 5 μg/cm^2, after 48 h (dead or moribund)
Procedure: Rhipicephalus sanguineus—In Vitro Contact Tests with Adult Brown Dog Ticks
(§1) For the coating of the test tubes, 9 mg of active ingredient are first dissolved in 1 ml of acetone p.a. and then diluted to the desired concentration with acetone p.a. 250 μl of the solution are distributed homogeneously on the inner walls and base of a 25 ml test tube by turning and rocking on an orbital shaker (rocking rotation at 30 rpm for 2 h). With 900 ppm active ingredient solution and internal surface 44.7 cm^2, given homogeneous distribution, an area-based dose of 5 μg/cm^2 is achieved.
After the solvent has evaporated off, the tubes are populated with 5-10 adult dog ticks (Rhipicephalus sanguineus), sealed with a perforated plastic lid and incubated in a horizontal position in the dark at room temperature and ambient humidity. After 48 h, efficacy is determined. To this end, the ticks are knocked to the floor of the tube and incubated on a hotplate at 45-50° C. for not more than 5 min. Ticks which remain motionless on the floor or move in such an uncoordinated manner that they are unable to deliberately avoid the heat by climbing upwards are considered to be dead or moribund.
An efficacy of 100% means that all the ticks were dead or moribund. 0% efficacy means that none of the ticks had been harmed.

Compound	efficacy [%]
N#CC1(NC(=O)c2cc(-c3cnn(-c4ccc(C(F)(C(F)(F)F)C(F)(F)F)cc4C(F)(F)F)c3)ccc2Cl)CC1 [I-T3-53]	100
Cc1cc(C(F)(C(F)(F)F)C(F)(F)F)cc(C(F)(F)F)c1-c1cc(-c2ccc(Cl)c(C(=O)NC3CC3)c2)on1 [I-T22-5]	100

tested on: Ctenocephalides felis; assay: Ctenocephalides felis - in vitro contact tests with adult cat fleas; type: in vivo; details: application rate 5 μg/cm^2 (=500 g/ha), after 48 h (dead or moribund)
Procedure: Ctenocephalides felis—In Vitro Contact Tests with Adult Cat Fleas
as §1, with “surface area” for “surface”
After the solvent has evaporated off, the tubes are populated with 5-10 adult cat fleas (Ctenocephalides felis), sealed with a perforated plastic lid and incubated in a horizontal position at room temperature and ambient humidity. After 48 h, efficacy is determined. To this end, the test tubes are stood upright and the fleas are knocked to the base of the tube. Fleas which remain motionless at the base or move in an uncoordinated manner are considered to be dead or moribund.
100% efficacy means that all the fleas were dead or moribund. 0% efficacy means that no fleas were harmed.

Compound	efficacy [%]
N#CC1(NC(=O)c2cc(-c3cnn(-c4c(Cl)cc(C(F)(C(F)(F)F)C(F)(F)F)cc4C(F)(F)F)c3)ccc2Cl)CC1 [I-T3-57]	100
Cc1cc(C(F)(C(F)(F)F)C(F)(F)F)cc(Br)c1-n1cc(-c2ccc(Cl)c(C(=O)NC3CC3)c2)cn1 [I-T3-86]	100
Cc1cc(C(F)(C(F)(F)F)C(F)(F)F)cc(C(F)(F)F)c1-c1cc(-c2ccc(Cl)c(C(=O)NC3CC3)c2)on1 [I-T22-5]	100

tested on: Amblyomma hebraeum; assay: Amblyomma hebraeum test (tick nymphs, immersion); type: in vivo; details: application rate 100 ppm; tick nymphs immersed for one minute; kill after 42 days
Procedure: (§2) Solvent: dimethyl sulphoxide
To produce an appropriate active ingredient formulation, 10 mg of active ingredient are mixed with 0.5 ml of dimethyl sulphoxide, and the concentrate is diluted with water to the desired concentration.
Tick nymphs (Amblyomma hebraeum) are placed into perforated plastic beakers and immersed in the desired concentration for one minute. The ticks are transferred on filter paper into a Petri dish and stored in a climate-controlled cabinet.
After 42 days, the kill in % is determined. 100% means that all of the ticks have been killed; 0% means that none of the ticks have been killed.

Compound	efficacy [%]
N#CC1(NC(=O)c2cc(-c3cnn(-c4ccc(C(F)(C(F)(F)F)C(F)(F)F)cc4C(F)(F)F)c3)ccc2Cl)CC1 [I-T3-53]	80
N#CC1(NC(=O)c2cc(-c3cnn(-c4c(Cl)cc(C(F)(C(F)(F)F)C(F)(F)F)cc4C(F)(F)F)c3)ccc2Cl)CC1 [I-T3-57]	100
Cc1cc(C(F)(C(F)(F)F)C(F)(F)F)cc(Br)c1-n1cc(-c2ccc(Cl)c(C(=O)NC3CC3)c2)cn1 [I-T3-86]	100

tested on: Boophilus microplus; assay: Boophilus microplus - injection test; type: in vivo; details: application rate 20 μg/animal; injected into engorged adult female ticks; laying of fertile eggs, after 7 days
Procedure, shortened: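 Compound dissolved in DMSO (10 mg per 0.5 ml, then diluted with DMSO to test concentration); 1 μl injected into the abdomen of 5 engorged adult female ticks, which are then held in a climate-controlled room. Efficacy judged after 7 days by laying of fertile eggs.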

Compound	efficacy [%]
N#CC1(NC(=O)c2cc(-c3cnn(-c4ccc(C(F)(C(F)(F)F)C(F)(F)F)cc4C(F)(F)F)c3)ccc2Cl)CC1 [I-T3-53]	100
N#CC1(NC(=O)c2cc(-c3cnn(-c4c(Cl)cc(C(F)(C(F)(F)F)C(F)(F)F)cc4C(F)(F)F)c3)ccc2Cl)CC1 [I-T3-57]	100
Cc1cc(C(F)(C(F)(F)F)C(F)(F)F)cc(Br)c1-n1cc(-c2ccc(Cl)c(C(=O)NC3CC3)c2)cn1 [I-T3-86]	100
Cc1cc(C(F)(C(F)(F)F)C(F)(F)F)cc(C(F)(F)F)c1-c1cc(-c2ccc(Cl)c(C(=O)NC3CC3)c2)on1 [I-T22-5]	100

tested on: Boophilus microplus Parkhurst strain, SP-resistant; assay: Boophilus microplus - dip test; type: in vivo; details: application rate 100 ppm; dip of engorged adult female ticks; laying of fertile eggs, after 7 days
Procedure: Boophilus microplus—Dip Test
Test animals: cattle ticks (Boophilus microplus) Parkhurst strain, SP-resistant
as §2
10 mg of active ingredient are dissolved in 0.5 ml of dimethyl sulphoxide. For the purpose of producing a suitable formulation, the active ingredient solution is diluted with water to the concentration desired in each case.
This active ingredient formulation is pipetted into tubes. 8-10 adult engorged female cattle ticks (Boophilus microplus) are transferred into a further tube with holes. The tube is immersed into the active ingredient formulation, and all the ticks are completely wetted. After the liquid has run out, the ticks are transferred on filter discs into plastic dishes and stored in a climate-controlled room.
Efficacy is assessed after 7 days by laying of fertile eggs. Eggs which are not visibly fertile are stored in a climate-controlled cabinet until the larvae hatch after about 42 days. An efficacy of 100% means that none of the ticks has laid any fertile eggs; 0% means that all the eggs are fertile.

Compound	efficacy [%]
N#CC1(NC(=O)c2cc(-c3cnn(-c4ccc(C(F)(C(F)(F)F)C(F)(F)F)cc4C(F)(F)F)c3)ccc2Cl)CC1 [I-T3-53]	100
N#CC1(NC(=O)c2cc(-c3cnn(-c4c(Cl)cc(C(F)(C(F)(F)F)C(F)(F)F)cc4C(F)(F)F)c3)ccc2Cl)CC1 [I-T3-57]	100
Cc1cc(C(F)(C(F)(F)F)C(F)(F)F)cc(Br)c1-n1cc(-c2ccc(Cl)c(C(=O)NC3CC3)c2)cn1 [I-T3-86]	100
Cc1cc(C(F)(C(F)(F)F)C(F)(F)F)cc(C(F)(F)F)c1-c1cc(-c2ccc(Cl)c(C(=O)NC3CC3)c2)on1 [I-T22-5]	100

tested on: Ctenocephalides felis; assay: Ctenocephalides felis - oral test; type: in vivo; details: application rate 100 ppm in citrated cattle blood; adult fleas; kill after 2 days
Procedure, shortened: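 Oral exposure of unfed adult fleas, roughly 20 per chamber, to compound-spiked citrated cattle blood taken up across a parafilm membrane. Read-out is percent kill at 2 days, where 100% means every flea dead.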

Compound	efficacy [%]
N#CC1(NC(=O)c2cc(-c3cnn(-c4ccc(C(F)(C(F)(F)F)C(F)(F)F)cc4C(F)(F)F)c3)ccc2Cl)CC1 [I-T3-53]	100
N#CC1(NC(=O)c2cc(-c3cnn(-c4c(Cl)cc(C(F)(C(F)(F)F)C(F)(F)F)cc4C(F)(F)F)c3)ccc2Cl)CC1 [I-T3-57]	100
Cc1cc(C(F)(C(F)(F)F)C(F)(F)F)cc(Br)c1-n1cc(-c2ccc(Cl)c(C(=O)NC3CC3)c2)cn1 [I-T3-86]	100
Cc1cc(C(F)(C(F)(F)F)C(F)(F)F)cc(C(F)(F)F)c1-c1cc(-c2ccc(Cl)c(C(=O)NC3CC3)c2)on1 [I-T22-5]	100

tested on: Lucilia cuprina; assay: Lucilia cuprina test; type: in vivo; details: application rate 100 ppm; L1 larvae in minced horsemeat; kill after 2 days
Procedure, shortened: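 About 20 L1 larvae placed on minced horsemeat treated with compound, formulated in DMSO and diluted with water to test concentration. Kill in % scored after 2 days (100% = all larvae dead, 0% = none).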

Compound	efficacy [%]
N#CC1(NC(=O)c2cc(-c3cnn(-c4ccc(C(F)(C(F)(F)F)C(F)(F)F)cc4C(F)(F)F)c3)ccc2Cl)CC1 [I-T3-53]	100
N#CC1(NC(=O)c2cc(-c3cnn(-c4c(Cl)cc(C(F)(C(F)(F)F)C(F)(F)F)cc4C(F)(F)F)c3)ccc2Cl)CC1 [I-T3-57]	100
Cc1cc(C(F)(C(F)(F)F)C(F)(F)F)cc(Br)c1-n1cc(-c2ccc(Cl)c(C(=O)NC3CC3)c2)cn1 [I-T3-86]	100
Cc1cc(C(F)(C(F)(F)F)C(F)(F)F)cc(C(F)(F)F)c1-c1cc(-c2ccc(Cl)c(C(=O)NC3CC3)c2)on1 [I-T22-5]	100

tested on: Musca domestica; assay: Musca domestica test; type: in vivo; details: application rate 100 ppm; adult houseflies; kill after 2 days
Procedure, shortened: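 Feeding exposure: adult Musca domestica, 10 per vessel, given a sponge with sugar solution and test formulation at the desired concentration; % mortality determined on day 2.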

Compound	efficacy [%]
N#CC1(NC(=O)c2cc(-c3cnn(-c4ccc(C(F)(C(F)(F)F)C(F)(F)F)cc4C(F)(F)F)c3)ccc2Cl)CC1 [I-T3-53]	100
N#CC1(NC(=O)c2cc(-c3cnn(-c4c(Cl)cc(C(F)(C(F)(F)F)C(F)(F)F)cc4C(F)(F)F)c3)ccc2Cl)CC1 [I-T3-57]	100
Cc1cc(C(F)(C(F)(F)F)C(F)(F)F)cc(Br)c1-n1cc(-c2ccc(Cl)c(C(=O)NC3CC3)c2)cn1 [I-T3-86]	100
Cc1cc(C(F)(C(F)(F)F)C(F)(F)F)cc(C(F)(F)F)c1-c1cc(-c2ccc(Cl)c(C(=O)NC3CC3)c2)on1 [I-T22-5]	100
